This is an account of results in US20130072440A1, “CO-CRYSTALS AND PHARMACEUTICAL FORMULATIONS COMPRISING THE SAME” (VERTEX PHARMACEUTICALS INCORPORATED, priority 2010, published 2013).

The data set in a line: Kinetic solubility in Fed State Simulated Intestinal Fluid (FESSIF). The note with it: thermodynamic from solid. The class given is physicochemical. The procedure: Kinetic solubility profiles of VX-950 co-crystal fluid bed granules were determined in Fed State Simulated Intestinal Fluid (FESSIF).
[…] of VX-950 co-crystal fluid-bed granules were dissolved in 100 ml of FESSIF.
The experiment of Example was repeated with 166.51 mg of VX-950 co-crystal fluid-bed granules.
Kinetic solubility of the following substances or formulations were measured in FESSIF: […]

In brackets after ≈: the same amount, converted by molar mass.

As to `CCC[C@H](NC(=O)[C@@H]1[C@H]2CCC[C@H]2CN1C(=O)[C@@H](NC(=O)[C@@H](NC(=O)c1cnccn1)C1CCCCC1)C(C)(C)C)C(=O)C(=O)NC1CC1` [Crystalline VX-950], the solubility (kinetic) at 15 min is 5 µg/mL (≈ 7.35 µM), the kinetic solubility at 30 min was 5 µg/mL (≈ 7.35 µM), the kinetic solubility at 45 min is 5 µg/mL (≈ 7.35 µM) and the solubility (kinetic) at 60 min was 4.5 µg/mL (≈ 6.62 µM). The solubility (kinetic) at 90 min is 4 µg/mL (≈ 5.88 µM) and the kinetic solubility at 180 min was 4 µg/mL (≈ 5.88 µM).

As a reminder, the solubility (kinetic) is the concentration staying in solution when a stock, usually in DMSO, is diluted into the medium.
